Source: ChEMBL document CHEMBL1134632, “Long lasting antinociceptive properties of enkephalin degrading enzyme (NEP and APN) inhibitor prodrugs” (J Med Chem, 2001)

Target: Neprilysin (Homo sapiens, UniProt P08473)
Test: Compound was evaluated for inhibition of enkephalin degrading enzyme, neutral endopeptidase (NEP)

Sequence of Neprilysin (P08473 whole entry): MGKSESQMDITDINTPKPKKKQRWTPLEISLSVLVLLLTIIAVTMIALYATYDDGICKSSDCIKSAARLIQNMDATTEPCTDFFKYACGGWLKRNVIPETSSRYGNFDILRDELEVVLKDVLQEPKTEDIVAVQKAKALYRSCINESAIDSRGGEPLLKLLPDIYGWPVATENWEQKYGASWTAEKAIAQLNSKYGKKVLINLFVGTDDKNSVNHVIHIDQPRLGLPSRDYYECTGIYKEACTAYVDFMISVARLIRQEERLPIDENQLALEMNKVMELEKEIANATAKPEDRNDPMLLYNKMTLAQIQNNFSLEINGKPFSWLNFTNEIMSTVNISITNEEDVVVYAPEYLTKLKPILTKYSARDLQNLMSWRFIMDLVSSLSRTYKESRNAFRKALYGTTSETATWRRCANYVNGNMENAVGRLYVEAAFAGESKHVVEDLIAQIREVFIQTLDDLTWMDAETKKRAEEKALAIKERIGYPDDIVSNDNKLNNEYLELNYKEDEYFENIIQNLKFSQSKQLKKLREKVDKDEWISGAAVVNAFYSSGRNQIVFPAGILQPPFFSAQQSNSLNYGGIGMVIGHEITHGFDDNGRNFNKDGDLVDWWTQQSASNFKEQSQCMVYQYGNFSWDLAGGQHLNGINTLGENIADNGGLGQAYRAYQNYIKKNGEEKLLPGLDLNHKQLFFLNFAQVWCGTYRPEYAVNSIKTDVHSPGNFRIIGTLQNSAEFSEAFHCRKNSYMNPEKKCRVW

Ki: 2 nM
Compound: CSCC[C@H](N)CSSC[C@@H](Cc1ccccc1)C(=O)NC(Cc1ccccc1)C(=O)OCc1ccccc1 (stereo partly specified)
